The first data set can be described thus: Surface tension of surfactant added at 0.5% by mass to CTFA (plate method, 25° C.). The data set is classed as physicochemical. The settings on record: neat CTFA. The protocol: In the present disclosure, the “polymerizable surfactant” refers to a surfactant having a polymerizable group. In the present disclosure, the “surfactant” refers to a compound in which, in a case of adding the compound in an addition amount of 0.5% by mass with respect to cyclic trimethylolpropane formal acrylate (hereinafter, referred to as “CTFA”), a surface tension is reduced 1 mN/m or more. The surface tension is measured by a plate method at 25° C. using a surface tension meter, and for example, can be measured using an automatic surface tension meter (product name “DY-300”) manufactured by Kyowa Interface Science Co., Ltd. A surface tension of CTFA is 36.5 mN/m. […]
With regard to a product in which the content of the surfactant is not 100% by mass (for example, a product containing a solvent other than the surfactant), the content of the surfactant is adjusted to 100% by mass, and the surface tension is measured using the surfactant alone. […]
In Tables 1 to 10, “Polyfunctional monomer/polymerizable surfactant” indicates the mass ratio of the content of the polyfunctional monomer to the content of the polymerizable surfactant. […] The surface tension reduction relative to CTFA was calculated based on the following expression.
In the case of `C=CC(=O)OCC1(CC)COCOC1` [CTFA, cyclic trimethylolpropane formal acrylate], the “Surface tension of CTFA” value stood at 36.5 mN/m.

The nature of a further data set: Specific gravity of polymerizable monomer (gravimeter). The data set is classed as physicochemical.
Details: not given
The protocol: Among these, the polymerizable monomer preferably includes a polymerizable monomer having a specific gravity of 1.0 or less.
In the present disclosure, the specific gravity is measured using a gravimeter, for example, a high precision electronic gravimeter (model number “EW-300SG”, manufactured by Alfa Mirage).
The molecule `C=CC(=O)OCC1(CC)COCOC1` [CTFA, cyclic trimethylolpropane formal acrylate] gave a Specific gravity of 1.09 g/mL. Turning to `C=CC(=O)OC1CCCCC1` [Cyclohexyl acrylate], the Specific gravity turned out to be 0.98 g/mL. On the same count and under the same terms, next, `C=CC(=O)OCCCCCCCCCCOC(=O)C=C` [Decanediol diacrylate]: 0.968 g/mL. Consider `C=CC(=O)OCCC(C)CCOC(=O)C=C` [Example 3MPDDA], for which the Specific gravity was 1.03 g/mL. Same read-out and setting: next, `C=CC(=O)OCCCCO` [Example 4-HBA]: 1.04 g/mL; `C=CC(=O)O[C@@H]1C[C@H]2CC[C@]1(C)C2(C)C` [Isobornyl acrylate]: 0.987 g/mL. Molecule `C=CC(=O)OCCCCCCCC(C)C` [Isodecyl acrylate] showed a Specific gravity of 0.88 g/mL.

The molecule `C=CC(=O)OCCCCCCC(C)C` [Isononyl acrylate] had a Specific gravity of 0.885 g/mL.

On to `C=CC(=O)OCCCCCCCCCCCCCCCC(C)C` [Isostearyl acrylate], for which the Specific gravity was 0.871 g/mL.

As for `C=CC(=O)OCCCCCCCCCCCC` [Lauryl acrylate], the Specific gravity turned out to be 0.875 g/mL. In the case of `C=CC(=O)N(C)C` [N,N-Dimethylacrylamide], the Specific gravity was 0.964 g/mL. The molecule `C=CC(=O)NC(C)C` [N-Isopropyl acrylamide] registered a Specific gravity of 0.89 g/mL. Molecule `C=CC(=O)OCCCCCCCCC` [Nonyl acrylate] yielded a Specific gravity of 0.875 g/mL. `C=CC(=O)OCCCCCCCCCCCCCCCCCC` [Stearyl acrylate] displayed a Specific gravity of 0.86 g/mL.

Regarding `C=CC(=O)OCCOCCOCCOC(=O)C=C` [TEGDA], the Specific gravity is 1.05 g/mL. Turning to `C=COCCOCCOCCOC=C` [Triethylene glycol divinyl ether], the Specific gravity came to 1.00 g/mL.

Molecule `C=CC(=O)OCCCCCCCC` [n-Octyl acrylate] gave a Specific gravity of 0.894 g/mL. The molecule Tricyclohexyl acrylate yielded a Specific gravity of 0.93 g/mL. In turn, t-Butylcyclohexyl acrylate returned a Specific gravity of 0.941 g/mL.

The same data set, now with this note: listed as DDDA.
As for `C=CC(=O)OCCCCCCCCCCOC(=O)C=C` [Decanediol diacrylate], the Specific gravity stood at 0.97 g/mL.

(Values after patent US20240043706A1, “ACTIVE ENERGY RAY-CURABLE INKJET INK FOR BEVERAGE CONTAINER, ACTIVE ENERGY RAY-CURABLE INKJET INK SET, AND IMAGE RECORDING METHOD” (FUJIFILM CORPORATION, priority 2021, published 2024).)
